Results reported in PMC7751060 (Antiviral therapy, 2012).
Where two headings read alike, the source gives them in different places.

Tests used:
[1] = system: bovine viral diarrhoea virus (BVDV); settings: cited from earlier work
Cytotoxicity assays [2] = assay type: cell-based; settings: mouse, RAW 264.7 cells
NV replicon (HG23 cells) = assay: Norwalk virus replicon assay: NV RNA by RT-qPCR in HG23 cells; assay type: cell-based; settings: for Reduction in NV RNA: 10 μM; for Effect on NV RNA levels in HG23 cells, in words: 24-96 h post-treatment; for SI / therapeutic index (CC50/EC50), NV replicon: HG23 cells; for EC90: HG23, read-out: EC90, concentration required to reduce NV RNA copy number in HG23 cells by 90%
[3] = system: NPT II expression in HG23 cells; assay: Western blot of NPT II expression in HG23 cells; assay type: cell-based, Norwalk virus; settings: for NPT II expression, % of untreated cells: 72 h incubation; for IC50: Norwalk virus, HG23, read-out: IC50, concentration required to reduce NPT II expression in HG23 cells by 50%
MNV (MNV-1.CW3) [4] = assay: MNV assay: MNV RNA levels by RT-qPCR in RAW 264.7 cells; assay type: cell-based, murine norovirus; settings: for EC90 / EC50: Norwalk virus; for EC50: RAW264.7, read-out: EC50, concentration required to reduce MNV RNA copy number by 50%; for SI (CC50/EC50), MNV / Antiviral activity against MNV (RNA levels), in words: RAW 264.7 cells; for Antiviral activity against MNV (RNA levels), in words: 0.1-100 μM (RBV 10-200 μM)
MNV (MNV-1.CW3) [5] = assay: MNV assay: MNV infectivity by TCID50 in RAW 264.7 cells; assay type: cell-based, murine norovirus; settings: for Effect on MNV titre (infectivity), in words: RAW 264.7 cells, TCID50
HCV = settings: cited from earlier work
Cytotoxicity assays [6] = assay type: cell-based; settings: human, HG23 and Huh-7 cells
[7] = cited from earlier work
HCV infections = settings: reportedly; Phase II, treatment of HCV; cited from earlier work
[8] = Norwalk virus, HG23, read-out: EC50, concentration required to reduce NV RNA copy number in HG23 cells by 50%, RT-qPCR
[9] = read-out: EC50, concentration required to reduce NV RNA copy number in HG23 cells by 50%, RT-qPCR
[10] = RAW264.7, read-out: EC90, concentration required to reduce MNV RNA copy number by 90%

**Q.** Which EC50 ([1]; read-out: EC50 against BVDV, range given for HCV and BVDV together) does the source give for `C[C@@]1(O)[C@H](O)[C@@H](CO)O[C@H]1n1ccc(N)nc1=O` [2′-C-MeC, 4-amino-1-((2R, 3R, 4R, 5R)-3,4 dihydroxy-5-(hydroxymethyl)-3-methyltetrahydrofuran-2-yl) pyrimidin-2(1H)-one] here?
**A.** 2 to 7 µM

**Q.** What about the CC50 at 5 days (Cytotoxicity assays [2]) of the same compound?
**A.** > 100 µM

**Q.** What about the “Reduction in NV RNA” value (NV replicon (HG23 cells); 72 h post-treatment) of the same compound?
**A.** 1.2 log10

**Q.** And the “Reduction in NV RNA” value (NV replicon (HG23 cells); 96 h post-treatment)?
**A.** 3.6 log10

**Q.** And the “Reduction of NV RNA level” value (NV replicon (HG23 cells); 0.1 and 1 μM, after 96 h)?
**A.** 2.5 log10

**Q.** And the “Effect on NV RNA levels in HG23 cells, in words” value (“Effect on NV RNA levels” below) (NV replicon (HG23 cells))?
**A.** dose- and time-dependent reduction of NV RNA levels

**Q.** What about the “SI / therapeutic index (CC50/EC50), NV replicon” value (from here on “SI / therapeutic index”) (NV replicon (HG23 cells)) of the same compound?
**A.** > 77.5

**Q.** And the EC50 (NV replicon (HG23 cells); [8])?
**A.** 1.3 µM

**Q.** And the EC90 (NV replicon (HG23 cells); Norwalk virus)?
**A.** 8.9 ± 1.5 µM

**Q.** And the EC50 (NV replicon (HG23 cells); [9])?
**A.** 1.29 ± 0.8 µM

**Q.** And the “NPT II expression, % of untreated cells” value ([3]; 1 μM)?
**A.** 83%

**Q.** And the “NPT II expression, % of untreated cells” value ([3]; 10 μM)?
**A.** 13%

**Q.** What about the “NPT II expression, % of untreated cells” value ([3]; 100 μM) of the same compound?
**A.** 2%

**Q.** And the IC50 [3]?
**A.** 2.77 ± 1.4 µM

**Q.** And the “Reduction of MNV RNA levels” value (MNV (MNV-1.CW3) [4]; 0.1 μM, 72 h of exposure)?
**A.** 2 log10

**Q.** What about the “Inhibition of MNV replication (RNA)” value (MNV (MNV-1.CW3) [4]; 100 μM, 24 h post-treatment) of the same compound?
**A.** 3 log10

**Q.** What about the EC90 (MNV (MNV-1.CW3) [4]; RAW264.7, 24 h, read-out: EC90, MNV RNA (1 log10 reduction) (converted)) of the same compound?
**A.** 25.6 ± 3.7 µM

**Q.** What about the EC50 (MNV (MNV-1.CW3) [4]) of the same compound?
**A.** 6.9 ± 3.9 µM

**Q.** And the EC90 (MNV (MNV-1.CW3) [4]; [10])?
**A.** 25.4 ± 3.6 µM

**Q.** And the “SI (CC50/EC50), MNV” value (MNV (MNV-1.CW3) [4])?
**A.** >14.6

**Q.** And the “Antiviral activity against MNV (RNA levels), in words” value (shortened to “Antiviral activity against MNV”) (MNV (MNV-1.CW3) [4])?
**A.** dose- and time-dependent reduction of MNV RNA levels

**Q.** And the inhibition at 100 µM (MNV (MNV-1.CW3) [5]; Norwalk virus, RAW264.7, 24 h, read-out: Inhibition of MNV replication (titre))?
**A.** 99%

**Q.** What about the “Effect on MNV titre (infectivity), in words” value (from here on “Effect on MNV titre”) (MNV (MNV-1.CW3) [5]) of the same compound?
**A.** MNV titres were significantly reduced

**Q.** What about the EC50 (HCV; read-out: EC50 against HCV, range given for HCV and BVDV together) of the same compound?
**A.** 2 to 7 µM

**Q.** And the CC50 at 5 days (Cytotoxicity assays [6])?
**A.** > 100 µM

**Q.** With `C[C@@]1(F)[C@H](O)[C@@H](CO)O[C@H]1n1ccc(N)nc1=O` [2′-F-2′-C-MeC, 4-amino-1-((2R, 3R, 4R, 5R)-3-fluoro-4-hydroxy-5-(hydroxymethyl)-3-methyltetrahydrofuran-2-yl) pyrimidin-2(1H)-one] as the compound, how does the “Activity against BVDV replication, in words” value [1] read?
**A.** not BVDV replication

**Q.** What about the CC50 at 5 days (Cytotoxicity assays [2]) of the same compound?
**A.** > 100 µM

**Q.** What about the “Effect on NV RNA levels” value (NV replicon (HG23 cells)) of the same compound?
**A.** dose- and time-dependent reduction of NV RNA levels

**Q.** And the “SI / therapeutic index” value (NV replicon (HG23 cells))?
**A.** > 31.4

**Q.** And the EC50 (NV replicon (HG23 cells); [8])?
**A.** 3.2 ± 1.5 µM

**Q.** What about the EC90 (NV replicon (HG23 cells); Norwalk virus) of the same compound?
**A.** 49 ± 2.9 µM

**Q.** And the EC50 (MNV (MNV-1.CW3) [4])?
**A.** 12.7 ± 2.9 µM

**Q.** And the EC90 (MNV (MNV-1.CW3) [4]; [10])?
**A.** 91.2 ± 2.8 µM

**Q.** What about the “SI (CC50/EC50), MNV” value (MNV (MNV-1.CW3) [4]) of the same compound?
**A.** >7.9

**Q.** And the “Antiviral activity against MNV” value (MNV (MNV-1.CW3) [4])?
**A.** dose-dependent antiviral activity only at 12 h post-treatment

**Q.** And the IC50 (MNV (MNV-1.CW3) [5]; Norwalk virus, RAW264.7, 12 h, read-out: IC50, MNV infectivity)?
**A.** 33.9 ± 1.1 µM

**Q.** And the “Effect on MNV titre” value (MNV (MNV-1.CW3) [5])?
**A.** reduced MNV titres, but only at 12 h post-treatment

**Q.** And the “Activity against HCV replication, in words” value (HCV)?
**A.** inhibits HCV

**Q.** And the CC50 at 5 days (Cytotoxicity assays [6])?
**A.** > 100 µM

**Q.** For `Nc1ccn([C@@H]2CS[C@H](CO)O2)c(=O)n1` [3TC, 4-amino-1-((2R, 5S)-2-(hydroxymethyl)-1,3-oxathiolan-5-yl) pyrimidin-2(1H)-one, reference compound], which CC50 at 5 days (Cytotoxicity assays [2]) is on record?
**A.** > 100 µM

**Q.** And the “Effect on NV RNA levels” value (NV replicon (HG23 cells))?
**A.** did not show antiviral activity

**Q.** And the “Antiviral activity against MNV” value (MNV (MNV-1.CW3) [4])?
**A.** Neither 3TC nor NHC had antiviral activity against MNV

**Q.** What about the “Effect on MNV titre” value (MNV (MNV-1.CW3) [5]) of the same compound?
**A.** No reduction of MNV titre was observed

**Q.** What about the CC50 at 5 days (Cytotoxicity assays [6]) of the same compound?
**A.** > 100 µM

**Q.** Which “Activity against BVDV, in words” value [1] does the source give for `O=c1nc(NO)ccn1[C@@H]1O[C@H](CO)[C@@H](O)[C@H]1O` [NHC, 1-((2R, 3R, 4S, 5R)-3,4-dihydroxy-5-(hydroxymethyl)tetrahydrofuran-2-yl)-4-(hydroxyamino) pyrimidin-2(1H)-one] here?
**A.** active against HCV, BVDV

**Q.** And the CC50 at 5 days (Cytotoxicity assays [2])?
**A.** > 100 µM

**Q.** What about the “Effect on NV RNA levels” value (NV replicon (HG23 cells)) of the same compound?
**A.** dose- and time-dependent reduction of NV RNA levels

**Q.** And the “SI / therapeutic index” value (NV replicon (HG23 cells))?
**A.** > 68.0

**Q.** And the EC50 (NV replicon (HG23 cells); [8])?
**A.** 1.5 µM

**Q.** What about the EC90 (NV replicon (HG23 cells); Norwalk virus) of the same compound?
**A.** 16.6 ± 2.1 µM

**Q.** What about the EC50 (NV replicon (HG23 cells); [9]) of the same compound?
**A.** 1.47 ± 1.1 µM

**Q.** And the Mutagenic properties [7]?
**A.** has mutagenic properties

**Q.** What about the “NPT II expression, % of untreated cells” value ([3]; 1 μM) of the same compound?
**A.** 91%

**Q.** What about the “NPT II expression, % of untreated cells” value ([3]; 10 μM) of the same compound?
**A.** 40%

**Q.** And the “NPT II expression, % of untreated cells” value ([3]; 100 μM)?
**A.** 16%

**Q.** What about the IC50 [3] of the same compound?
**A.** 6 ± 1.7 µM

**Q.** And the EC50 (MNV (MNV-1.CW3) [4])?
**A.** 8.8 ± 4.2 µM

**Q.** And the “SI (CC50/EC50), MNV” value (MNV (MNV-1.CW3) [4])?
**A.** >11.4

**Q.** What about the “Antiviral activity against MNV” value (MNV (MNV-1.CW3) [4]) of the same compound?
**A.** Neither 3TC nor NHC had antiviral activity against MNV

**Q.** What about the “Effect on MNV titre” value (MNV (MNV-1.CW3) [5]) of the same compound?
**A.** No reduction of MNV titre was observed

**Q.** And the “Activity against HCV, in words” value (HCV)?
**A.** active against HCV, BVDV

**Q.** What about the CC50 at 5 days (Cytotoxicity assays [6]) of the same compound?
**A.** > 100 µM

**Q.** For `CC(C)[C@H](N)C(=O)O[C@@H]1[C@@H](CO)O[C@@H](n2ccc(N)nc2=O)[C@]1(C)O` [NM-283], which “Clinical outcome in HCV trials, in words” value (HCV infections) is on record?
**A.** found to have gastrointestinal problems

**Q.** For `NC(=O)c1ncn([C@@H]2O[C@H](CO)[C@@H](O)[C@H]2O)n1` [RBV, ribavirin, reference compound], which CC50 at 5 days (Cytotoxicity assays [2]) is on record?
**A.** > 100 µM

**Q.** What about the “SI / therapeutic index” value (NV replicon (HG23 cells)) of the same compound?
**A.** >5.0

**Q.** What about the EC50 (NV replicon (HG23 cells); [8]) of the same compound?
**A.** 40 ± 2.3 µM

**Q.** And the EC90 (NV replicon (HG23 cells); Norwalk virus)?
**A.** 96.3 ± 2.5 µM

**Q.** What about the EC50 (MNV (MNV-1.CW3) [4]) of the same compound?
**A.** 63.5 ± 2.3 µM

**Q.** And the EC90 (MNV (MNV-1.CW3) [4]; [10])?
**A.** 105 ± 1.5 µM

**Q.** What about the “SI (CC50/EC50), MNV” value (MNV (MNV-1.CW3) [4]) of the same compound?
**A.** >1.6

**Q.** And the “Antiviral activity against MNV” value (MNV (MNV-1.CW3) [4])?
**A.** reduced MNV RNA levels in a dose-dependent manner at 12 h and 24 h post-treatment

**Q.** And the CC50 at 5 days (Cytotoxicity assays [6])?
**A.** > 200 µM

**Q.** With `CC(C)C(=O)OC[C@H]1O[C@@H](n2ccc(N)nc2=O)[C@](C)(F)[C@@H]1OC(=O)C(C)C` [RG-7128] as the compound, how does the “Clinical outcome in HCV trials, in words” value (HCV infections) read?
**A.** demonstrated safety and efficacy against HCV
